Consider 5 compounds from ChEMBL document CHEMBL1201862, “PubChem BioAssay data set” (2004).

The nature of data set [1]: NIH-3T3 fibroblast cytotoxicity, dose response, cytotoxicity control, cell-based, fluorescence, Alamar Blue, secondary assay (AID 2327).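 Further: NIH-3T3 mouse fibroblasts cultured with fluconazole at 8 µg/mL.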 The class given is functional. In general terms: The colour change of resazurin is a common sign of viable cells or microbes.
Data set [2] is described as follows: C. albicans growth with fluconazole, confirmation, fluorescence, retest (AID 2467). The class given is functional, cell-based.
Data set [3] is described as follows: THP-1 cell cytotoxicity, dose response, cytotoxicity control for non-replicating M. tuberculosis project (AID 489025). The class given is functional.
The nature of data set [4]: HepG2 cell cytotoxicity, dose response, cytotoxicity control for non-replicating M. tuberculosis project (AID 489018). The class given is functional. To be noted: Mycobacterium tuberculosis.
A short description of data set [5]: Vero E6 cell cytotoxicity, dose response, cytotoxicity control for non-replicating M. tuberculosis project, secondary assay (AID 492998). The class given is functional, VeroE6. To be noted: Vero C1008.
The nature of the next data set: cells. Format: functional.
In data set [6] the test system is HEK293. Description: cytotoxicity in HEK293T NF-kB-Luc cells, SAR follow-up, cytotoxicity control for NF-kB activator project, cell-based, resazurin fluorescence (AID 493251). The class given is functional. To be noted: Homo sapiens.
The next data set relates to Jurkat. Description: SAR Analysis of small molecule inhibitors of T-cell specific antigen receptor-induced NF-kB activation in a Jurkat cell line using a luminescence assay - Set 2. [Related pubchem assays (depositor defined):AID435003, AID435012, AID465]. Format: functional, cell-based. To be noted: Homo sapiens.
The test system of data set [7] is HEK293. Description: SAR Analysis of small molecule inhibitors of T-cell specific antigen receptor-induced NF-kB activation in a HEK-293T cell line using a luminescence assay - Set 2. [Related pubchem assays (depositor defined):AID435003, AID435012, AID489026]. Format: functional, cell-based. To be noted: Homo sapiens.
A short description of data set [8]: Luminescence Cell-Based/Microorganism Confirmation at Dose of Inhibitors of Trypanosoma cruzi Infection. [Related pubchem assays: 1885, 1968 ]. Format: functional.
The nature of data set [9]: inhibitors of intracellular T. cruzi replication, confirmation, NIH3T3 host cells, beta-gal luminescence (AID 2044).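 Further: intracellular parasites grown in NIH/3T3 mouse fibroblasts as host cells; luminescent beta-galactosidase reporter signal from transgenic T. cruzi replicating inside host cells; inhibitors lower the luminescence signal.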 Format: functional, cell-based.
Data set [10] is described as follows: cytotoxicity toward NIH3T3 fibroblasts, dose response, counter-screen, cell-based, ATP luminescence, mouse fibroblasts (AID 2010).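 Further: cells exposed to compound for about 90 hours before reading.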 Format: functional. For orientation: The purpose of a counterscreen is to sort out artefacts and off-target activity.
A short description of data set [11]: inhibitors of Trypanosoma cruzi host-cell infection, confirmation, beta-gal luminescence, NIH3T3 host cells (AID 2630). Format: functional, cell-based. To be noted: Mus musculus.
A further data set has as its target Cytochrome P450 3A4 (Homo sapiens, UniProt P08684).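 Further: CYP3A4 tested as one member of a cytochrome P450 panel screen.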
The target of another data set is T1, Cytochrome P450 1A2 (Homo sapiens, UniProt P05177).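 Further: PubChem cytochrome P450 panel assay, CYP1A2 panel member.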
T1 sequence (P05177 whole entry): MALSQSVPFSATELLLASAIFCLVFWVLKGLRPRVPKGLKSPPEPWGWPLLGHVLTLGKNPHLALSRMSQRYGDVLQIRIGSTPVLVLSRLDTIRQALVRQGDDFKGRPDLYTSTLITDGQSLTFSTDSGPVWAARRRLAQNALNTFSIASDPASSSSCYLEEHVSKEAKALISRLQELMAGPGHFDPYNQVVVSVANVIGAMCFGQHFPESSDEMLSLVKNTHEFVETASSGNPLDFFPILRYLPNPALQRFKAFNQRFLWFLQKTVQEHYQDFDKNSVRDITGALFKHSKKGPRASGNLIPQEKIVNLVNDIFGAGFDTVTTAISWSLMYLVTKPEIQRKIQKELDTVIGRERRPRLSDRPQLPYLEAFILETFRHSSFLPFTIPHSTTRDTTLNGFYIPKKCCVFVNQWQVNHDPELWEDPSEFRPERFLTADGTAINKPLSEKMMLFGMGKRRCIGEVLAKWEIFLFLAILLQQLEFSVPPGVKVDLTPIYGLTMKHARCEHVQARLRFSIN

Data set [12] is described as follows: Luminescence Cell-Based Dose Retest to Confirm Inhibitors of Cancer Stem Cells. [Related pubchem assays (depositor defined):AID2717, AID2721]. The class given is functional, Homo sapiens. To be noted: Homo sapiens.
Data set [13] can be described thus: cytotoxicity in HMLE control line with eGFP shRNA, dose response, counter-screen for HMLE_sh_ECad selective toxicity project, cell-based, HMLE_sh_eGFP, luminescence (AID 463074).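 Further: HMLE human mammary epithelial cells expressing control shRNA against eGFP.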 The class given is functional, Homo sapiens.
For data set [14], the system named is Streptococcus sp. 'group A'. Description: growth inhibition of control SK(-) GAS strain, dose response, counter-screen for streptokinase expression inhibitor project, luminescence, kanamycin, BacTiterGlo, confirmation (AID 1900). Format: functional, organism-based. To be noted: read-out: EC50.
The target of another data set is Large T antigen (Simian virus 40, UniProt P03070). The class given is functional, Betapolyomavirus macacae.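 Further: Confirmatory-stage PubChem screen for compounds that inhibit SV40 T antigen.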
Large T antigen, sequence (P03070 whole entry): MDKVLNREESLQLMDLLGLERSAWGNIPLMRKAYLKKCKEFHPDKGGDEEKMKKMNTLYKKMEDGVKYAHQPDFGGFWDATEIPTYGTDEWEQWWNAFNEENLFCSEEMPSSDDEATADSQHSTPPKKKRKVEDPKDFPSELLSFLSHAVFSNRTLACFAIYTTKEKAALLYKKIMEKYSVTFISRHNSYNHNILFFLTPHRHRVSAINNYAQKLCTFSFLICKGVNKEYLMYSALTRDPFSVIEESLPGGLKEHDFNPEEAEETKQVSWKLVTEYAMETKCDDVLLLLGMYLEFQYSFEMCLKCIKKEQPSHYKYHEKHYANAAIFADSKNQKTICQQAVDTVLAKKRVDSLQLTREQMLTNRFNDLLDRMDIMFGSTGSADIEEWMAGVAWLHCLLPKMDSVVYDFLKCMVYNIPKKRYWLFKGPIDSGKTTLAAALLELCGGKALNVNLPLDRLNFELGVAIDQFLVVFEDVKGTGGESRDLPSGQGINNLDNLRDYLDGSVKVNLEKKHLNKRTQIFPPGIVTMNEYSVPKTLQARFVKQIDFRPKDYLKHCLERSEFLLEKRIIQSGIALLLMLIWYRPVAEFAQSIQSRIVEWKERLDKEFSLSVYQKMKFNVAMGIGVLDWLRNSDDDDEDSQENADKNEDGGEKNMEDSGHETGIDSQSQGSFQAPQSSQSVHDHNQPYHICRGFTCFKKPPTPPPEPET
A further data set deals with Streptococcus. Description: Group A Streptococcus viability loss, dose response, counter-screen for streptokinase expression inhibitor project, luminescence, BacTiterGlo (AID 1915).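 Further: potency for reduction of bacterial viability or growth.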 The class given is functional, organism-based.
In data set [15] the target is Glucose-6-phosphate 1-dehydrogenase (Homo sapiens, UniProt P11413). Kind of data set: human G6PD enzyme inhibitors, dose response, selectivity assay for P. falciparum G6PD inhibitor project, biochemical, fluorescence (AID 504792). Format: functional.
Glucose-6-phosphate 1-dehydrogenase, sequence (P11413 whole entry, the tested form may be a part): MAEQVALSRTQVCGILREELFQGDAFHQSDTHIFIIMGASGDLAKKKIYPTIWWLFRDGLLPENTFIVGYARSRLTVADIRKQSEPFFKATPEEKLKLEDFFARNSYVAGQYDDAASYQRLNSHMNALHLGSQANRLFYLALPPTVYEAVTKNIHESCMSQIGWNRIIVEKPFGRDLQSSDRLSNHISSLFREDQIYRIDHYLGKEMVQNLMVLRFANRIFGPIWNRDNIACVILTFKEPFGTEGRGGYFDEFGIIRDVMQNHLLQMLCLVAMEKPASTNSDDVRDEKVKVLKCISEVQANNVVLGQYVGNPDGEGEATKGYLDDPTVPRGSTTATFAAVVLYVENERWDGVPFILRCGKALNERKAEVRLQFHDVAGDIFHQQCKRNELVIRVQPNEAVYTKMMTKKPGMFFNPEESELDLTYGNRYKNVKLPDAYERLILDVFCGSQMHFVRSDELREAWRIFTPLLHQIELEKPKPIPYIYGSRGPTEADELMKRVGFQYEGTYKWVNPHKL
For data set [16], the target named is 1-acylglycerol-3-phosphate O-acyltransferase ABHD5/Perilipin-5 (Homo sapiens, UniProt Q00G26+Q8WTS1). Description: Luminescence-based biochemical high throughput dose response assay for inhibitors of the interaction of the lipase co-activator protein, abhydrolase domain containing 5 (ABHD5) with perilipin-5 (MLDP; PLIN5) (2K validation set). [Related pubchem assays (depositor defined):AID493035, AID493241].
1-acylglycerol-3-phosphate O-acyltransferase ABHD5/Perilipin-5, sequence (Q00G26 whole entry, the tested form may be a part): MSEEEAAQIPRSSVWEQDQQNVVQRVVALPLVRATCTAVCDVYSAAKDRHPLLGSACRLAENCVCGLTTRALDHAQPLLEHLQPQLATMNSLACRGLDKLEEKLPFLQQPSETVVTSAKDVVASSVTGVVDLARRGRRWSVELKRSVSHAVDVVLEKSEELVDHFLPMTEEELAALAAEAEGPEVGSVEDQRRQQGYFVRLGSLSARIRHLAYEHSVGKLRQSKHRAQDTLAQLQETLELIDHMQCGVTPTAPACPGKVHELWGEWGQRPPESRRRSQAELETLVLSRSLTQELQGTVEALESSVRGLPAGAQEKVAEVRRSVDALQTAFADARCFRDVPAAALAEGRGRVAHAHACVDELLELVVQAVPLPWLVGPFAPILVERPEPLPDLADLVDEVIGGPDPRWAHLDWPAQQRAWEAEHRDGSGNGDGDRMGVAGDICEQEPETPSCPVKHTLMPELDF
1-acylglycerol-3-phosphate O-acyltransferase ABHD5/Perilipin-5, sequence (Q8WTS1 whole entry, the tested form may be a part): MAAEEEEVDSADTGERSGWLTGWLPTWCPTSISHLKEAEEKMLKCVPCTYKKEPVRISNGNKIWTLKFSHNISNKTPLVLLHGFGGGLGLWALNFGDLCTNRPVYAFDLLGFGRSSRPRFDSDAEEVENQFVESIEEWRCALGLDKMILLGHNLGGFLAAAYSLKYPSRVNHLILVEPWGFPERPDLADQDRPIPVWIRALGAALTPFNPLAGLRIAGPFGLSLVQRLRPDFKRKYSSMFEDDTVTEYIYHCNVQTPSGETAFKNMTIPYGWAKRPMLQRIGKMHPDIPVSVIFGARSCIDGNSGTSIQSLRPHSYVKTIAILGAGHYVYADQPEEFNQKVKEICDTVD

In the next data set the target is Perilipin-1/ABHD5 (Homo sapiens, UniProt O60240+Q8WTS1). Description: Luminescence-based biochemical high throughput dose response assay for inhibitors of the interaction of the lipase co-activator protein, abhydrolase domain containing 5 (ABHD5) with perilipin-1 (PLIN1) (2K validation set). [Related pubchem assays (depositor defined):AID493027, AID493057].
Perilipin-1/ABHD5, sequence (Q8WTS1 whole entry, the tested form may be a part): as above
Perilipin-1/ABHD5, sequence (O60240 whole entry, the tested form may be a part): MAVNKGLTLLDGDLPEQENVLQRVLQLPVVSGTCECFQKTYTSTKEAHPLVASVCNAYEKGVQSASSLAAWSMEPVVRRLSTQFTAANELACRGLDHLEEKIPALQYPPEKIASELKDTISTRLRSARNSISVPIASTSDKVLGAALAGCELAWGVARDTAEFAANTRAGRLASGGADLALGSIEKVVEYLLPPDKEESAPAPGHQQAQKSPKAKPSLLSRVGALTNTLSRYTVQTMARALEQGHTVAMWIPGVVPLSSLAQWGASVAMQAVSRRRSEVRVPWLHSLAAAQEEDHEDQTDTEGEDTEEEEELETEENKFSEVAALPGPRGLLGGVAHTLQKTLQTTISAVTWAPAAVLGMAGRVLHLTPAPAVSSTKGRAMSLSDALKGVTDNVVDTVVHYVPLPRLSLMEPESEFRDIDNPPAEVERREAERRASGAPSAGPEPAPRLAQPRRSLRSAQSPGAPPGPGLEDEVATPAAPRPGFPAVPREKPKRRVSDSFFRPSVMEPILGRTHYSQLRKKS
For data set [17], the target named is Phosphoethanolamine/phosphocholine phosphatase (Homo sapiens, UniProt Q8TCT1). Description: SAR assay for compounds that inhibit PHOSPHO1. [Related pubchem assays (depositor defined):AID1545, AID1565, AID1574].
Phosphoethanolamine/phosphocholine phosphatase, sequence (Q8TCT1 whole entry): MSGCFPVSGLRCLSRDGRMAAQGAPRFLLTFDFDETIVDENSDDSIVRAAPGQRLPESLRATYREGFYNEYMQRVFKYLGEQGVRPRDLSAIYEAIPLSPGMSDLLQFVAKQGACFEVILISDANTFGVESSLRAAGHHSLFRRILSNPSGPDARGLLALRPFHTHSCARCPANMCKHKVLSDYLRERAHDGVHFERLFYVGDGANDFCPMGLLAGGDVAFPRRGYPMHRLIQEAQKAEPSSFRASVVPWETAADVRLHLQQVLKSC
For the next data set, the target named is T2, Hexokinase HKDC1 (Homo sapiens, UniProt Q2TB90).
T2 sequence (Q2TB90 whole entry): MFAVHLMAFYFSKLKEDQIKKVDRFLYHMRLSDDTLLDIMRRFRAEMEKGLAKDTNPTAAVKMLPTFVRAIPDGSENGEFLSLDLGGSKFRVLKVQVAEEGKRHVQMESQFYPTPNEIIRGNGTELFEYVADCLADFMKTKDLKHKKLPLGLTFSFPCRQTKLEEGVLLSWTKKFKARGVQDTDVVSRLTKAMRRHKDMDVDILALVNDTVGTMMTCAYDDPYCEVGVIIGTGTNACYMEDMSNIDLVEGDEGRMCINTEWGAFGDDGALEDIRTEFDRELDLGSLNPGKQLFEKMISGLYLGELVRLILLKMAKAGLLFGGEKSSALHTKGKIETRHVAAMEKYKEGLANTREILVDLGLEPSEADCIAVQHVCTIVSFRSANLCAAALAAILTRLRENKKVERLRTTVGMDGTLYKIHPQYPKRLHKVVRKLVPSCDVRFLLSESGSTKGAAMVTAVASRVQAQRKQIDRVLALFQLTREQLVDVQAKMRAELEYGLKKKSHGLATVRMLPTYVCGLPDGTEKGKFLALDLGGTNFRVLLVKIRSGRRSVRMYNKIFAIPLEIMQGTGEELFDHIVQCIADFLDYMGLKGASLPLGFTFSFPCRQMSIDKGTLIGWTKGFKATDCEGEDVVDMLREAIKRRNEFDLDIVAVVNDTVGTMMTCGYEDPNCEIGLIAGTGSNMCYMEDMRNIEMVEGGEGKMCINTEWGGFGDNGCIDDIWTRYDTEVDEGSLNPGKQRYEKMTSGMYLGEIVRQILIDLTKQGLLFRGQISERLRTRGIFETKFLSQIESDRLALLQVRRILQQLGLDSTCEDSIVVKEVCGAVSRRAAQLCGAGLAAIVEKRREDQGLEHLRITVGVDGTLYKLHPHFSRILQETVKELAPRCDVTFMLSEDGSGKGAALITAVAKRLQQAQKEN
Kind of data set: HKDC1 hexokinase activators, dose response, biochemical, W721R variant (AID 504730). The class given is functional.

The target in data set [18] is Eukaryotic translation initiation factor 4E (Mus musculus, UniProt P63073). Kind of data set: eIF4E–eIF4G protein interaction inhibitors, dose response, biochemical, TR-FRET (AID 855).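 Further: potency for disrupting eIF4E binding to eIF4GI seen as loss of FRET.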 The class given is functional.
Eukaryotic translation initiation factor 4E, sequence (P63073 whole entry): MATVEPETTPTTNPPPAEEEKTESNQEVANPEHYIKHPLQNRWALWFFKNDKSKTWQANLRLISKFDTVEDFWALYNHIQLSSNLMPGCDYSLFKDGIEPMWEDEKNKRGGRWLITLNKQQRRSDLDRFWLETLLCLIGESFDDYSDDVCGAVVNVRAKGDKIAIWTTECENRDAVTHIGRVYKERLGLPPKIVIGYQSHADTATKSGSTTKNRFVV
The next data set has as its target T3, Hexokinase-1 (Homo sapiens, UniProt P19367).
T3 sequence (P19367 whole entry): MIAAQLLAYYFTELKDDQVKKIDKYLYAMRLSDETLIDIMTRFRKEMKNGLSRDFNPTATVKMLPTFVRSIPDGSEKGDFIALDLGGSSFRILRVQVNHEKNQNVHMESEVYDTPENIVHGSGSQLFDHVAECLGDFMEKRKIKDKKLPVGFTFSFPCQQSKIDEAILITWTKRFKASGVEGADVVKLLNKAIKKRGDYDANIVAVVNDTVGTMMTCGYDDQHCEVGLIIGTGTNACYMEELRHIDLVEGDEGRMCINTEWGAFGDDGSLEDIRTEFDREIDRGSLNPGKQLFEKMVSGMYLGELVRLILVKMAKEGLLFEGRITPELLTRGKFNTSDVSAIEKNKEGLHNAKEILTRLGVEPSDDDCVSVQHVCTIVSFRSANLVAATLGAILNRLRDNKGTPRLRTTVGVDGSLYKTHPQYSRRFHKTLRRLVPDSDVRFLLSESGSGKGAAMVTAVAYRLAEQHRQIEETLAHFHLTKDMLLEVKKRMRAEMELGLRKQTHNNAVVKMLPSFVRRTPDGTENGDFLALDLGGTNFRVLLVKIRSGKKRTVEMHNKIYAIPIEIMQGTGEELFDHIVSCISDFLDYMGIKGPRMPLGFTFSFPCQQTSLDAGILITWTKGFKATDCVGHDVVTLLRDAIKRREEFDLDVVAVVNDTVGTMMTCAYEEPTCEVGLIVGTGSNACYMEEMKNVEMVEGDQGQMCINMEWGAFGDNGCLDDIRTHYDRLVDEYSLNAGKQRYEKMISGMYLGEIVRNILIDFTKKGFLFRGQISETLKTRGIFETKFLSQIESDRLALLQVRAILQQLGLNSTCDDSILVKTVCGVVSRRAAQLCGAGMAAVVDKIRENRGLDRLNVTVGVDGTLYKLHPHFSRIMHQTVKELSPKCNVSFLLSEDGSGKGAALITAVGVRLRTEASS
Kind of data set: hexokinase 1 activators, dose response, selectivity assay for HKDC1 activator project, biochemical (AID 504762). Format: functional.

For another data set, the target named is Beta-arrestin-1 (Homo sapiens, UniProt P49407). Kind of data set: inhibitors of arrestin peptide binding to AP2, dose response, biochemical, cherry pick 1, beta2-adaptin appendage, flow cytometry (AID 588783). The class given is functional. In general terms: A flow cytometer gives signals particle by particle.
Data set [19] concerns the target Voltage-gated inwardly rectifying potassium channel KCNH2 (Homo sapiens, UniProt Q12809). As to conditions: Potency.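 Further: confirmatory quantitative high-throughput screen measuring inhibition of hERG channel activity.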

Active and inactive are the calls of the source.

Cytochrome P450 3A4, sequence (P08684 whole entry): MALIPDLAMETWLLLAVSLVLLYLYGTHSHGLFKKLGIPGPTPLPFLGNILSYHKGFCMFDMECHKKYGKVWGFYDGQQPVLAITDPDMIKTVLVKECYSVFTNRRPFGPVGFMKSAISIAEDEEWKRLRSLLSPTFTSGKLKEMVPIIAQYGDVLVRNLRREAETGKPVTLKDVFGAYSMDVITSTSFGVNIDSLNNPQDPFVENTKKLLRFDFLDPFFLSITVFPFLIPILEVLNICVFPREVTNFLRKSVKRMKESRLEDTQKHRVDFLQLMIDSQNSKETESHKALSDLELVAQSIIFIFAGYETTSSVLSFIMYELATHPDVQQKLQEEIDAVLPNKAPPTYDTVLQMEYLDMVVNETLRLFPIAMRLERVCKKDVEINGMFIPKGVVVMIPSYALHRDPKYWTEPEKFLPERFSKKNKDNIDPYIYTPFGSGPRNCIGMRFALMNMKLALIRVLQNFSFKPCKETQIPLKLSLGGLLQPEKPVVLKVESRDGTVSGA
Voltage-gated inwardly rectifying potassium channel KCNH2, sequence (Q12809 whole entry): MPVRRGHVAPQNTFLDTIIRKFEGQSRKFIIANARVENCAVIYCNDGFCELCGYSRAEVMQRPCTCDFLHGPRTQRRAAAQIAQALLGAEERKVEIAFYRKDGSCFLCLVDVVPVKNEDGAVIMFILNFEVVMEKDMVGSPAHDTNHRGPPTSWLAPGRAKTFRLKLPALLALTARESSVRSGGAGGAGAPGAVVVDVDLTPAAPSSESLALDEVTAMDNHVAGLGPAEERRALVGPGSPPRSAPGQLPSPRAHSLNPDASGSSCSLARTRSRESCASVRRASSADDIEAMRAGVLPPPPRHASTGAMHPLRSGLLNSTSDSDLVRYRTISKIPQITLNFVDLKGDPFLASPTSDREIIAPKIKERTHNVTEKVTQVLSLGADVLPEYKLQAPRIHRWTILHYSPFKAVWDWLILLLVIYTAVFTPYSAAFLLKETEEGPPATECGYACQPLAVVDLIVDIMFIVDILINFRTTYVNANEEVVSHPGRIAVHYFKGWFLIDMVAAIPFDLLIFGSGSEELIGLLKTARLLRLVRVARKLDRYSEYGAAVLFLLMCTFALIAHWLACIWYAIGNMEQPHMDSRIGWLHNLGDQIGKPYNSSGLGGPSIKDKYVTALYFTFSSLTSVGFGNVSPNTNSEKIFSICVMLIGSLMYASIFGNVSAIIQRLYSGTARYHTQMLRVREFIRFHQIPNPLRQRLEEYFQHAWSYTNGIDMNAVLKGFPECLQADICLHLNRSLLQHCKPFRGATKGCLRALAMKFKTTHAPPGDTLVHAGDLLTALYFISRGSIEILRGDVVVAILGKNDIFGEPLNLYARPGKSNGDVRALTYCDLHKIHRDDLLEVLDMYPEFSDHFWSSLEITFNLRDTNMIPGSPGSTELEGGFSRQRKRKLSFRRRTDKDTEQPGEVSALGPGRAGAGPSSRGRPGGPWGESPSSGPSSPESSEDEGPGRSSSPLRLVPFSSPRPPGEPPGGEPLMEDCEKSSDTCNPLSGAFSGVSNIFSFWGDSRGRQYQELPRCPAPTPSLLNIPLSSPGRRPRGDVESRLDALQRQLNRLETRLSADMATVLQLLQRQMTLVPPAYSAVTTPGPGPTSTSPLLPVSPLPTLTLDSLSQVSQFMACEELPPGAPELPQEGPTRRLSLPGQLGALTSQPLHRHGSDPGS

A word on the EC50: it is the concentration giving half of the maximal effect. By CC50 is commonly meant the concentration giving 50% cytotoxicity. The term IC50 denotes the concentration that inhibits the measured activity by half. As for `Cc1ccc(NC(=O)c2ccc([N+](=O)[O-])o2)cc1C`, the EC50 in data set [1] was 14.2 µM (active); in data set [2], 1.87 µM (active). Besides, the 50% cytotoxic concentration (CC50) in [3] was 16.2 µM (active); in data set [4] it was 15.1 µM (active); in data set [5], 6.87 µM (active). For the same compound, the IC50 is 0.7 µM (active) in the data set “cells”, 47.3 µM (inactive) in the data set on HEK293 [6], 6.86 µM (active) with Jurkat and 38.6 µM (inactive) in the data set with HEK293 [7].
Turning to `CC1CCCN(C(=O)Cc2cn(Cc3cccc(Cl)c3)c3ccccc23)C1` (centres undefined), the EC50 in [8] is 2.81 µM (active); in [9], 1.79 µM (active); in data set [10], > 60 µM (not active); in data set [11], 2.81 µM (active).
As usually defined, the AC50 is the concentration at which the activity in the assay is half-maximal. Consider `O=C(c1ccc2c(c1)N(Cc1ccc(F)cc1)C(=O)CS2)N1CCOCC1`, for which the AC50 at Cytochrome P450 3A4 was 25.1 µM (inconclusive); on Cytochrome P450 1A2 it was “inconclusive”.
Turning to `CCC(C(=O)Nc1cc(OC)c(NC(=O)c2ccccc2)cc1OC)c1ccccc1` (centres undefined), the AC50 in data set [12] is 4.24 µM (active); in [13], 51.9 µM (active).
Consider `O=c1c2ccccc2[se]n1-c1ccccc1` [EBSELEN], for which the EC50 is 1.1 µM (active) in [14], 0.975 µM (active) with Streptococcus, 38.8 µM (inactive) on Hexokinase HKDC1 and 41.9 µM (inactive) on Hexokinase-1. Besides, the IC50 was 13.9 µM (active) at Large T antigen; 13.2 µM (active) in data set [15]; 1.1 µM (active) in data set [16]; 3.41 µM (active) at Perilipin-1/ABHD5; 0.111 µM (active) in [17]; 1.15 µM (active) in data set [18]. Also, the IC50 at Beta-arrestin-1 is 1.52 µM (active). The AC50 in data set [19] is 35.5 µM (inconclusive).
